In the Kinase Knowledgebase extract (Sharma et al. 2016):

Biological target: EGFR (mouse) (UniProt P00533)
Settings: baf3

IC50 [µM] | SMILES
0.02 | COc1cc2ncnc(Nc3ccc(F)c(Cl)c3)c2cc1OCCN1CCOCC1
0.012 | O=C(O)c1ccc(-c2cc3c(Nc4cccc(Cl)c4)ncnc3[nH]2)cc1
0.012 | O=C(O)c1cc(N(Cc2ccccc2O)Cc2cc(O)ccc2O)ccc1O

Biological target: EGFR (human) (UniProt P00533)
Settings: mcf-10a

Chain of EGFR (human) (P00533 whole entry, looked up): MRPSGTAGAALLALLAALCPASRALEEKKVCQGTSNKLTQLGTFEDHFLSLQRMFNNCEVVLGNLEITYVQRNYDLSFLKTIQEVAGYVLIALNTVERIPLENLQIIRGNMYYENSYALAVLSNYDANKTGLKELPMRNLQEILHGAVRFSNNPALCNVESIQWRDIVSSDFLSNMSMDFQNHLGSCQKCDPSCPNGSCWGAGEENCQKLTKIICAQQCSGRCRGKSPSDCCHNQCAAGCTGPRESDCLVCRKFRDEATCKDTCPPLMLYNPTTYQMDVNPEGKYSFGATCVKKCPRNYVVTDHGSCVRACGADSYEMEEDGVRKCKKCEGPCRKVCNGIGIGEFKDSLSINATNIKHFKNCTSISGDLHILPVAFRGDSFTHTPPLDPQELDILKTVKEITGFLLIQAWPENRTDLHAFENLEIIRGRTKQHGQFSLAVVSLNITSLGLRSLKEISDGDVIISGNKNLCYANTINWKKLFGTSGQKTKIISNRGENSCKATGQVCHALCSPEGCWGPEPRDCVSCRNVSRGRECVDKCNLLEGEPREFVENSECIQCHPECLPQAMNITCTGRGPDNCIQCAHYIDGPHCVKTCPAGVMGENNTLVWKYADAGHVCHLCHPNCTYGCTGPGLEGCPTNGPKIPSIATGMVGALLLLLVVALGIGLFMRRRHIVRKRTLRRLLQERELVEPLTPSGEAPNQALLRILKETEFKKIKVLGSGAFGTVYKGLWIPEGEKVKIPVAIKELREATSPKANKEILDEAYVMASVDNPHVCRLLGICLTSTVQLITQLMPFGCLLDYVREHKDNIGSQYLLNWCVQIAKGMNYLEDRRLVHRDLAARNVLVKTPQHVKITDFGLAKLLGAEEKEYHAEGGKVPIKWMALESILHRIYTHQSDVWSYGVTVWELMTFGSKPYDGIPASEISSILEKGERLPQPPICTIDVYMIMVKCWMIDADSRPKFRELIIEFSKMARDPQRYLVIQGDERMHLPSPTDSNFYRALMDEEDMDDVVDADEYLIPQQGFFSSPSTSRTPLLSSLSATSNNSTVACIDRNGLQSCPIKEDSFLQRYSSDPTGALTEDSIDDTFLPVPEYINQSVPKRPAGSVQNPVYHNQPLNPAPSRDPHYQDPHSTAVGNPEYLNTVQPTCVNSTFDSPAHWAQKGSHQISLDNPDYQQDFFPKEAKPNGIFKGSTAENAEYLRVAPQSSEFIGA

SMILES | IC50 [µM]
COc1cc2ncnc(Nc3ccccc3F)c2cc1OC | 0.179
COc1cc2ncnc(Nc3cccc(I)c3)c2cc1OC | 0.585
COc1cc2ncnc(Nc3ccc(F)cc3)c2cc1OC | 0.612
COc1cc2ncnc(Nc3cc(F)cc(C(F)(F)F)c3)c2cc1OC | 1.63
CCOc1cc2ncnc(Nc3cc(F)cc(C(F)(F)F)c3)c2cc1OCC | > 3

Second part, the compound after the results:

IC50 [µM] | SMILES
0.188 | CCOc1cc2ncnc(NCc3ccc(F)cc3)c2cc1OCC
0.108 | CCOc1cc2ncnc(Nc3cccc(Cl)c3)c2cc1OCC
0.078 | CCOc1cc2ncnc(Nc3cccc(Br)c3)c2cc1OCC
0.622 | CCOc1cc2ncnc(Nc3ccc(F)cc3)c2cc1OCC
0.153 | CCOc1cc2ncnc(Nc3cccc(I)c3)c2cc1OCC
0.141 | CCOc1cc2ncnc(Nc3ccccc3F)c2cc1OCC
0.099 | CCOc1cc2ncnc(Nc3cccc(F)c3)c2cc1OCC
